These results are taken from patent US20240262814A1, “MODULATORS OF TREX1” (Constellation Pharmaceuticals, Inc., priority 2021, published 2024).

The structures appear in SMILES notation.

One test concerns the target T1, mouse TREX1 (Mus musculus, UniProt Q91XB0).
T1 construct: N-terminally His-Tev tagged full length mouse TREX1; made in house; host or cells: E. coli
T1 sequence (Q91XB0 1-314): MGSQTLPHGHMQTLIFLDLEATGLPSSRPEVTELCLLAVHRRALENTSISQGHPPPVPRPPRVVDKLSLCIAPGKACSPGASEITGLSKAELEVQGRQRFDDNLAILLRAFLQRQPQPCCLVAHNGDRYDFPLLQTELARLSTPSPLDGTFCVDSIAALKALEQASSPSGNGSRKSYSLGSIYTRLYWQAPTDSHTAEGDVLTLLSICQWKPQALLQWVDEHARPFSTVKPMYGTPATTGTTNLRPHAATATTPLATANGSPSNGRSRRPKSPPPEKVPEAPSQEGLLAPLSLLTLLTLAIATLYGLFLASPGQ
The test is described as follows: mTREX1 Biochemical Assay (fluorescence, dsDNA substrate degradation). Conditions: full length mouse TREX1, 4 h pre-incubation, 18 h reaction at 25° C. The procedure:
(§1) Degradation of the dsDNA liberates free fluorophore to produce a fluorescent signal. Specifically, 7.5 p L of N-terminally His-Tev tagged full length mouse TREX1 (expressed in E. coli and purified in house) in reaction buffer (50 mM Tris, 150 mM NaCl, 2 mM DTT, 0.1 mg/mL BSA, 0.01% (w/v) Tween-20, 5 mM MgCl2, pH 7.4) was added to a 384-well Black ProxiPlate Plus (PerkinElmer) which already contained compound (150 nL) at varying concentrations as a 10 point dose-response in DMSO. The plate was incubated at 25° C. for 4 hours. Reactions were initiated by adding 7.5 μL of dsDNA substrate (Strand A: 5′ TEX615/GCT AGG CAG 3′; Strand B: 5′ CTG CCT AGC/IAbRQSp (Integrated DNA Technologies)) in reaction buffer. Final concentrations were 6 pM TREX1, 60 nM dsDNA substrate in reaction buffer with 1.0% DMSO (v/v). After 18 hours at 25° C., reactions were quenched by the addition of 2 p L of 500 mM EDTA. Final concentrations in the quenched reaction were 5.3 pM TREX1, 53 nM DNA and 59 mM EDTA in a volume of 17 p L. After a 5-minute incubation at room temperature, plates were read in an EnVision plate reader (PerkinElmer) measuring fluorescence at 615 nm following excitation w/ 570 nm light. IC50 values were calculated by comparing the measured fluorescence at 615 nm relative to control wells pre-quenched w/ EDTA (100% inhibition) and no inhibitor (0% inhibition) controls as using non-linear least square four parameter fits and either Genedata or GraphPad Prism (GraphPad Software, Inc.).

The target in a further test is T2, human TREX1 (Homo sapiens, UniProt Q9NSU2).
T2 construct: N-terminally His-Tev tagged full length human TREX1; made in house; host or cells: E. coli
T2 sequence (Q9NSU2 1-314): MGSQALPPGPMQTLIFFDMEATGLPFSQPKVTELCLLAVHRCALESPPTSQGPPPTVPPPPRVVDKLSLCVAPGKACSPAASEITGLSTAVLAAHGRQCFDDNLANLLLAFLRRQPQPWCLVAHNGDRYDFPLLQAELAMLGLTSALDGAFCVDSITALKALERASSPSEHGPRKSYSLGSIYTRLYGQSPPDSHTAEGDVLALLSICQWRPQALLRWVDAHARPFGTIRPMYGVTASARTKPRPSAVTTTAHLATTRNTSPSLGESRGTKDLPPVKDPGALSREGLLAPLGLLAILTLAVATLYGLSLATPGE
Put plainly: hTREX1 Biochemical Assay (fluorescence, dsDNA substrate degradation). Conditions: full length human TREX1, 4 h pre-incubation, 18 h reaction at 25° C. As for the experimental part:
as §1, with “7.5 μL” for “7.5 p L”, “length human” for “length mouse”, “were 4” for “were 6”, “were 3.5” for “were 5.3”, “17 μL.” for “17 p L.”

In a further test the target is T3, human TREX2 (Homo sapiens, UniProt Q9BQ50).
T3 construct: human TREX2 (residues M44-A279, expressed in E. coli); made in house; host or cells: E. coli
T3 sequence (Q9BQ50 44-279 isoform Q9BQ50-1): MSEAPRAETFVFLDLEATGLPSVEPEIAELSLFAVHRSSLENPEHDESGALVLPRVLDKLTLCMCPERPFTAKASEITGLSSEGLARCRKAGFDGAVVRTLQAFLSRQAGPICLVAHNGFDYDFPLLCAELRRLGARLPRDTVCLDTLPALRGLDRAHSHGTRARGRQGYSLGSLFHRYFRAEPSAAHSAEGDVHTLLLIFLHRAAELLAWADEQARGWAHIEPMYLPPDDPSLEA
Put plainly: hTREX2 Biochemical Assay (selectivity hTREX1 vs hTREX2). Conditions: biochemical selectivity for hTREX1 vs hTREX2. The procedure:
Degradation of the dsDNA liberates free fluorophore to produce a fluorescent signal. Specifically, 7.5 p L of N-terminally His-Tev tagged human TREX2 (residues M44-A279, expressed in E. coli and purified in house) in reaction buffer (50 mM Tris, 150 mM NaCl, 2 mM DTT, 0.1 mg/mL BSA, 0.01% (w/v) Tween-20, 5 mM MgCl2, pH 7.4) was added to a 384-well Black ProxiPlate Plus (PerkinElmer) which already contained compound (150 nL) at varying concentrations as a 10 point dose-response in DMSO. The plate was incubated at 25° C. for 4 hours. Reactions were initiated by adding 7.5 μL of dsDNA substrate (Strand A: 5′ TEX615/GCT AGG CAG 3′; Strand B: 5′ CTG CCT AGC/IAbRQSp (IDT)) in reaction buffer. Final concentrations were 50 pM TREX2, 60 nM dsDNA substrate in reaction buffer with 1.0% DMSO (v/v). After 18 hours at 25° C., reactions were quenched by the addition of 2 μL of 500 mM EDTA. Final concentrations in the quenched reaction mixture were 44 pM TREX2, 53 nM DNA and 59 mM EDTA in a volume of 17 μL. After a 5-minute incubation at room temperature, plates were read in an EnVision plate reader (PerkinElmer) measuring fluorescence at 615 nm following excitation w/ 570 nm light. IC50 values were calculated by comparing the measured fluorescence at 615 nm relative to control wells pre-quenched w/ stop buffer (100% inhibition) and no inhibitor (0% inhibition) controls as using non-linear least square four parameter fits and either Genedata or GraphPad Prism (GraphPad Software, Inc.).

As to `CC(c1nc(C(=O)Nc2cnoc2)c(O)c(=O)n1C)C(c1ccccc1)c1cc(F)ccc1C#N` (single isomer, unassigned) [Example 6 Isomer 2], the IC50 was > 10 nM against mouse TREX1 and > 100 nM against human TREX1.

As for `CC(c1nc(C(=O)Nc2cnoc2)c(O)c(=O)n1C)C(c1cc(F)cc(F)c1)c1ccccc1C#N` (single isomer, unassigned) [Example 11 Isomer 2], the IC50 against mouse TREX1 was > 10 nM; at human TREX1, 1 to 10 nM. For the same molecule, on human TREX2, the “hTREX1 vs hTREX2 selectivity” value is on record as “C (C = >50 fold selective for hTREX1)”.

Regarding `Cn1c([C@@H](CF)C(c2ccccc2)c2ccccc2)nc(C(=O)Nc2cnoc2)c(O)c1=O` (single isomer, unassigned) [Example 18 Isomer 2, 2-(3-fluoro-1,1-diphenylpropan-2-yl)-5-hydroxy-N-(isoxazol-4-yl)-1-methyl-6-oxo-1,6-dihydropyrimidine-4-carboxamide], the values for the IC50 on mouse TREX1 and on human TREX1 were > 10 nM and > 100 nM, respectively.

As to `CC(c1nc(C(=O)Nc2cnoc2)c(O)c(=O)[nH]1)C(c1ccccc1C#N)c1ccccc1C#N` (single isomer, unassigned) [Example 5 Isomer 2, 2-(1,1-bis(2-cyanophenyl)propan-2-yl)-5-hydroxy-N-(isoxazol-4-yl)-6-oxo-1,6-dihydropyrimidine-4-carboxamide], the IC50 on mouse TREX1 was > 10 nM; against human TREX1, 1 to 10 nM.

As for `C[C@H](c1nc(C(=O)Nc2cnoc2)c(O)c(=O)n1C)[C@H](c1ccccc1)c1ccccc1C(F)(F)F` (single isomer, unassigned) [Example 14 Isomer 3, 5-Hydroxy-N-(isoxazol-4-yl)-1-methyl-6-oxo-2-(1-phenyl-1-(2-(trifluoromethyl)phenyl)propan-2-yl)-1,6-dihydropyrimidine-4-carboxamide], the figures for the IC50 against mouse TREX1 and against human TREX1 were > 10 nM and > 100 nM, respectively.

On to `CC(c1nc(C(=O)Nc2cnoc2)c(O)c(=O)n1C)C(c1ccccc1)c1cc(Cl)ccc1C#N` (single isomer, unassigned) [Example 8 Isomer 1], for which the IC50 is > 10 nM against mouse TREX1 and > 100 nM at human TREX1.

On to `C[C@H](c1nc(C(=O)Nc2cnoc2)c(O)c(=O)n1C)[C@H](c1ccccc1)c1ccc(C(=O)N(C)C)cc1C#N` (single isomer, unassigned) [Example 16 Isomer 2, 2-(1-(2-cyano-4-(dimethylcarbamoyl)phenyl)-1-phenylpropan-2-yl)-5-hydroxy-N-(isoxazol-4-yl)-1-methyl-6-oxo-1,6-dihydropyrimidine-4-carboxamide], for which the IC50 against mouse TREX1 is > 10 nM; on human TREX1, > 100 nM.

For `CC(c1nc(C(=O)Nc2cnoc2)c(O)c(=O)n1C)C(c1ccc(F)cc1F)c1ccccc1C#N` (single isomer, unassigned) [Example 13 Isomer 4], the IC50 is > 10 nM against mouse TREX1 and > 100 nM against human TREX1.

As to `CC(c1nc(C(=O)Nc2cnoc2)c(O)c(=O)n1C)C(c1ccccc1)c1cc(C(=O)N(C)C)ccc1C#N` (single isomer, unassigned) [Example 17 Isomer 4], the IC50 was > 10 nM against mouse TREX1 and 10 to 100 nM at human TREX1.

In the case of `CC(c1nc(C(=O)Nc2cnoc2)c(O)c(=O)n1C)C(c1ccccc1)c1cc(C(=O)N(C)C)ccc1C#N` (single isomer, unassigned) [Example 17 Isomer 2], the IC50 against mouse TREX1 was > 10 nM; on human TREX1, > 100 nM.

`CC(c1nc(C(=O)Nc2cnoc2)c(O)c(=O)n1C)C(c1ccccc1)c1ccc(F)cc1C#N` (single isomer, unassigned) [Example 7 Isomer 3]: the IC50 is > 10 nM at mouse TREX1 and > 100 nM on human TREX1.

On to `C[C@H](c1nc(C(=O)Nc2cnoc2)c(O)c(=O)n1C)[C@H](c1ccccc1)c1ccc(C(=O)N(C)C)cc1C#N` (single isomer, unassigned) [Example 16 Isomer 1, 2-(1-(2-cyano-4-(dimethylcarbamoyl)phenyl)-1-phenylpropan-2-yl)-5-hydroxy-N-(isoxazol-4-yl)-1-methyl-6-oxo-1,6-dihydropyrimidine-4-carboxamide], for which the half-inhibitory concentration (IC50) against mouse TREX1 was > 10 nM; on human TREX1, 1 to 10 nM.

Turning to `CC(c1nc(C(=O)Nc2cnoc2)c(O)c(=O)n1C)C(c1ccc(F)c(F)c1)c1ccccc1C#N` (single isomer, unassigned) [Example 12 Isomer 2], the 50% inhibitory concentration (IC50) against mouse TREX1 was > 10 nM; against human TREX1, > 100 nM.

Take `CC(c1nc(C(=O)Nc2cnoc2)c(O)c(=O)n1C)C(c1ccccc1)c1ccc(Cl)cc1C#N` (single isomer, unassigned) [Example 9 Isomer 3]: the IC50 on mouse TREX1 is > 10 nM; on human TREX1, > 100 nM.

With `CC(c1nc(C(=O)Nc2cnoc2)c(O)c(=O)n1C)C(c1cc(F)cc(F)c1)c1ccccc1C#N` (single isomer, unassigned) [Example 11 Isomer 1], the IC50 against mouse TREX1 is > 10 nM; at human TREX1, > 100 nM.
